Results from US12245589B2, “Omega-alicyclic tunicamycins and analogs” (priority 2022, dated 2025).
Entries after “also recorded” stand apart in the source; their conditions may differ.

Key:
[1] = tested on: Mycobacterium tuberculosis (Mtb); details: compared with natural tunicamycin; cited from earlier work
[2] = tested on: Mycobacterium avium subsp. paratuberculosis (MAP) strain K-10; experiment: Antibiotic disc assay on agar plates, MAP strain K-10; details: antibiotic discs on the plate for 13 days, FIG. 15C
[3] = tested on: Mycobacterium smegmatis biofilm; experiment: Microtiter plate bioassay, biofilm formation (MBFC); assay type: cell-based; details: M. smegmatis grown in TYG for 6 days at 37° C., FIG. 16
Description: (§1) In each plate, left two columns are treated with DMSO, center two columns are treated with tunicamycin; right two panels are treated with TunR2. The concentration in μg/mL is indicated on the right. Arrows show the concentration at which there is mycobacterial growth inhibition (MIC), or biofilm formation is blocked (MBFC).
(§2) Tunicamycins are known to inhibit the biosynthesis of bacterial cell wall, for example by blocking the peptidoglycan and teichoic layers. The Mycobacterium genus is characterized by unusual and complex cell walls composed of three distinct layers, peptidoglycan (PG), arabinogalactan (AG) and mycolic acids (MA), which are well characterized targets for antimycobacterial drugs (K A Abrahams & G S Besra, 2018, “Mycobacterial cell wall biosynthesis: a multifaceted antibiotic target,” Parasitology 145: 116-133). The MA and AG are also components of mycobacterial biofilms, an extracellular matrix with various pathogenic functions.

Mycobacterium smegmatis = experiment: Microtiter plate bioassay, mycobacterial growth inhibition (MIC); assay type: cell-based; details: M. smegmatis grown in TYG for 6 days at 37° C., FIG. 16
Description: as §1
The inventors have shown that tunicamycins (including the modified TunR1, TunR2, and OAT-type tunicamycins) have potent antimycobacterial activity (for example, MIC 0.5 μg·mL^−1 for TunR2 against M. smegmatis, as shown in FIG. 16.
as §2

[4] = tested on: cultured mammalian cell lines (HEK293, HepG2, Raji cells); details: cell line not given; cited from earlier work

Row | Compound | activity on MAP strain K-10 [2] | other results
1 | CCCCCCCCC(=O)N[C@H]1[C@H](O[C@H]2O[C@H](CO)[C@@H](O)[C@H](O)[C@H]2NC(=O)CCCCCCCC)O[C@H](C[C@@H](O)[C@H]2O[C@@H](n3ccc(=O)[nH]c3=O)[C@H](O)[C@@H]2O)[C@H](O)[C@@H]1O [Tun-9,9] |  | potency relative to natural tunicamycin against Mtb [1]: 5 times
2 | CC1(C)S[C@@H]2[C@H](NC(=O)C(C(=O)O)c3ccccc3)C(=O)N2[C@H]1C(=O)O (stereo partly shown) [carbenicillin] | resistant | activity on MAP strain K-10 ([2]; listed as Carbenicillin): low inhibitions at high concentrations
3 | CO/N=C(\C(=O)N[C@@H]1C(=O)N2C(C(=O)[O-])=C(C[n+]3cccc4c3CCCC4)CS[C@H]12)c1csc(N)n1 [cefquinome] | resistant; also recorded: low inhibitions at high concentrations | 
4 | CCCCCCCCC1=C(CCCCCCCC(=O)O)C1 [sterulic acid] | resistant | 
5 | CC(C)CCOc1ccc(NC(=S)Nc2ccc(OCCC(C)C)cc2)cc1 [thiocarlide] | resistant | 
6 | tunicamycin | perform well | Minimal Biofilm Formation Concentration, MBFC [3]: 1 µg/mL; MIC (mycobacterial growth inhibition) (Mycobacterium smegmatis): 2 µg/mL; LD50 [4]: > 400 µg/mL
